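Each compound was tested at five concentrations against cells in 96-well plates for 48 hours. TGI: total growth inhibition.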
Key:
Test in all cases: growth of human tumour cells (NCI), 48 h
CAKI-1 renal = test system: CAKI-1 renal
SW-620 colon = test system: SW-620 colon
M14 melanoma = test system: M14 melanoma
SNB-75 CNS = test system: SNB-75 CNS
OVCAR-8 ovarian = test system: OVCAR-8 ovarian
EKVX NSCLC = test system: EKVX NSCLC
A498 renal = test system: A498 renal
SK-OV-3 ovarian = test system: SK-OV-3 ovarian
DU-145 prostate = test system: DU-145 prostate
SR leukemia = test system: SR leukemia
SF-539 CNS = test system: SF-539 CNS
HCT-116 colon = test system: HCT-116 colon
786-0 renal = test system: 786-0 renal
A549 NSCLC = test system: A549 NSCLC
MDA-MB-231 breast = test system: MDA-MB-231 breast
MOLT-4 leukemia = test system: MOLT-4 leukemia
ACHN renal = test system: ACHN renal
LOX IMVI melanoma = test system: LOX IMVI melanoma
RPMI-8226 leukemia = test system: RPMI-8226 leukemia
UO-31 renal = test system: UO-31 renal
RXF 393 renal = test system: RXF 393 renal
OVCAR-5 ovarian = test system: OVCAR-5 ovarian
HOP-62 NSCLC = test system: HOP-62 NSCLC
PC-3 prostate = test system: PC-3 prostate
KM12 colon = test system: KM12 colon
HCT-15 colon = test system: HCT-15 colon
NCI-H522 lung = test system: NCI-H522 lung
U251 CNS = test system: U251 CNS
NCI-H23 lung = test system: NCI-H23 lung
IGROV1 ovarian = test system: IGROV1 ovarian
UACC-62 melanoma = test system: UACC-62 melanoma
CCRF-CEM leukemia = test system: CCRF-CEM leukemia
SF-268 CNS = test system: SF-268 CNS
OVCAR-3 ovarian = test system: OVCAR-3 ovarian
HOP-92 NSCLC = test system: HOP-92 NSCLC
SK-MEL-28 melanoma = test system: SK-MEL-28 melanoma
K-562 leukemia = test system: K-562 leukemia
MALME-3M melanoma = test system: MALME-3M melanoma
HT29 colon = test system: HT29 colon
T-47D breast = test system: T-47D breast
NCI/ADR-RES ovarian = test system: NCI/ADR-RES ovarian
HL-60(TB) leukemia = test system: HL-60(TB) leukemia
TK-10 renal = test system: TK-10 renal
NCI-H226 lung = test system: NCI-H226 lung
UACC-257 melanoma = test system: UACC-257 melanoma
COLO 205 colon = test system: COLO 205 colon
MDA-N = test system: MDA-N
SNB-19 CNS = test system: SNB-19 CNS
SK-MEL-5 melanoma = test system: SK-MEL-5 melanoma
HS 578T breast = test system: HS 578T breast
SF-295 CNS = test system: SF-295 CNS
HCC-2998 colon = test system: HCC-2998 colon
SN12C renal = test system: SN12C renal
NCI-H460 lung = test system: NCI-H460 lung
BT-549 breast = test system: BT-549 breast
MCF7 breast = test system: MCF7 breast
MDA-MB-435 = test system: MDA-MB-435
OVCAR-4 ovarian = test system: OVCAR-4 ovarian
SK-MEL-2 melanoma = test system: SK-MEL-2 melanoma

`C=C(c1ccccc1)C1ON(C)CCc2cc(OC)c(OC)cc21` (centres undefined) was tested, and the TGI (CAKI-1 renal) was greater than 100 µM, the TGI (SW-620 colon) was greater than 100 µM and the TGI (M14 melanoma) was greater than 100 µM. The TGI (SNB-75 CNS) was greater than 100 µM, the TGI (OVCAR-8 ovarian) was greater than 100 µM and the TGI (EKVX NSCLC) was greater than 100 µM. For the same compound, the TGI (A498 renal) was greater than 100 µM, the TGI (SK-OV-3 ovarian) was greater than 100 µM and the TGI (DU-145 prostate) was greater than 100 µM. The TGI (SR leukemia) was greater than 100 µM, the TGI (SF-539 CNS) was greater than 100 µM and the TGI (HCT-116 colon) was greater than 100 µM. For the same compound, the TGI (786-0 renal) was greater than 100 µM, the TGI (A549 NSCLC) was greater than 100 µM and the TGI (MDA-MB-231 breast) was greater than 100 µM. For the same compound, the TGI (MOLT-4 leukemia) was greater than 100 µM, the TGI (ACHN renal) was greater than 100 µM and the TGI (LOX IMVI melanoma) was greater than 100 µM. For the same compound, the TGI (RPMI-8226 leukemia) was greater than 100 µM, the TGI (UO-31 renal) was greater than 100 µM and the TGI (RXF 393 renal) was greater than 100 µM. For the same compound, the TGI (OVCAR-5 ovarian) was greater than 100 µM, the TGI (HOP-62 NSCLC) was greater than 100 µM and the TGI (PC-3 prostate) was greater than 100 µM. The TGI (KM12 colon) was greater than 100 µM, the TGI (HCT-15 colon) was greater than 100 µM and the TGI (NCI-H522 lung) was greater than 100 µM. For the same compound, the TGI (U251 CNS) was greater than 100 µM, the TGI (NCI-H23 lung) was greater than 100 µM and the TGI (IGROV1 ovarian) was greater than 100 µM. It also gave a TGI (UACC-62 melanoma) greater than 100 µM, a TGI (CCRF-CEM leukemia) greater than 100 µM and a TGI (SF-268 CNS) greater than 100 µM. The TGI (OVCAR-3 ovarian) was greater than 100 µM, the TGI (HOP-92 NSCLC) was greater than 100 µM and the TGI (SK-MEL-28 melanoma) was greater than 100 µM. The TGI (K-562 leukemia) was greater than 100 µM, the TGI (MALME-3M melanoma) was greater than 100 µM and the TGI (HT29 colon) was greater than 100 µM. For the same compound, the TGI (T-47D breast) was greater than 100 µM, the TGI (NCI/ADR-RES ovarian) was greater than 100 µM and the TGI (HL-60(TB) leukemia) was greater than 100 µM. The TGI (TK-10 renal) was greater than 100 µM, the TGI (NCI-H226 lung) was greater than 100 µM and the TGI (UACC-257 melanoma) was greater than 100 µM. It also gave a TGI (COLO 205 colon) greater than 100 µM, a TGI (MDA-N) greater than 100 µM and a TGI (SNB-19 CNS) greater than 100 µM. It also gave a TGI (SK-MEL-5 melanoma) of 66 µM, a TGI (HS 578T breast) greater than 100 µM and a TGI (SF-295 CNS) greater than 100 µM. The TGI (HCC-2998 colon) was greater than 100 µM, the TGI (SN12C renal) was greater than 100 µM and the TGI (NCI-H460 lung) was greater than 100 µM. The TGI (BT-549 breast) was greater than 100 µM, the TGI (MCF7 breast) was 48.3 µM and the TGI (MDA-MB-435) was greater than 100 µM.

In the case of `CCCCCC(=O)Nc1n[nH]nc1C(N)=O`, the TGI (CAKI-1 renal) is reported as greater than 100 µM, the TGI (SW-620 colon) is reported as greater than 100 µM and the TGI (M14 melanoma) is reported as greater than 100 µM. The TGI (SNB-75 CNS) was greater than 100 µM, the TGI (OVCAR-8 ovarian) was greater than 100 µM and the TGI (EKVX NSCLC) was greater than 100 µM. It also gave a TGI (A498 renal) greater than 100 µM, a TGI (SK-OV-3 ovarian) greater than 100 µM and a TGI (DU-145 prostate) greater than 100 µM. The TGI (SR leukemia) was greater than 100 µM, the TGI (SF-539 CNS) was greater than 100 µM and the TGI (HCT-116 colon) was greater than 100 µM. For the same compound, the TGI (786-0 renal) was greater than 100 µM, the TGI (A549 NSCLC) was greater than 100 µM and the TGI (MDA-MB-231 breast) was greater than 100 µM. It also gave a TGI (MOLT-4 leukemia) greater than 100 µM, a TGI (ACHN renal) greater than 100 µM and a TGI (LOX IMVI melanoma) greater than 100 µM. It also gave a TGI (OVCAR-4 ovarian) greater than 100 µM, a TGI (RPMI-8226 leukemia) greater than 100 µM and a TGI (UO-31 renal) greater than 100 µM. The TGI (RXF 393 renal) was greater than 100 µM, the TGI (OVCAR-5 ovarian) was greater than 100 µM and the TGI (HOP-62 NSCLC) was greater than 100 µM. For the same compound, the TGI (PC-3 prostate) was greater than 100 µM, the TGI (KM12 colon) was greater than 100 µM and the TGI (HCT-15 colon) was greater than 100 µM. The TGI (SK-MEL-2 melanoma) was greater than 100 µM, the TGI (NCI-H522 lung) was greater than 100 µM and the TGI (U251 CNS) was greater than 100 µM. The TGI (NCI-H23 lung) was greater than 100 µM, the TGI (IGROV1 ovarian) was greater than 100 µM and the TGI (UACC-62 melanoma) was greater than 100 µM. For the same compound, the TGI (CCRF-CEM leukemia) was greater than 100 µM, the TGI (SF-268 CNS) was greater than 100 µM and the TGI (OVCAR-3 ovarian) was greater than 100 µM. It also gave a TGI (HOP-92 NSCLC) greater than 100 µM, a TGI (SK-MEL-28 melanoma) greater than 100 µM and a TGI (K-562 leukemia) greater than 100 µM. It also gave a TGI (MALME-3M melanoma) greater than 100 µM, a TGI (HT29 colon) greater than 100 µM and a TGI (T-47D breast) greater than 100 µM. It also gave a TGI (NCI/ADR-RES ovarian) greater than 100 µM, a TGI (HL-60(TB) leukemia) greater than 100 µM and a TGI (TK-10 renal) greater than 100 µM. For the same compound, the TGI (NCI-H226 lung) was greater than 100 µM, the TGI (UACC-257 melanoma) was greater than 100 µM and the TGI (COLO 205 colon) was greater than 100 µM. The TGI (MDA-N) was greater than 100 µM, the TGI (SNB-19 CNS) was greater than 100 µM and the TGI (SK-MEL-5 melanoma) was greater than 100 µM. The TGI (HS 578T breast) was greater than 100 µM, the TGI (SF-295 CNS) was greater than 100 µM and the TGI (HCC-2998 colon) was greater than 100 µM. The TGI (SN12C renal) was greater than 100 µM, the TGI (NCI-H460 lung) was greater than 100 µM and the TGI (BT-549 breast) was greater than 100 µM. For the same compound, the TGI (MCF7 breast) was greater than 100 µM and the TGI (MDA-MB-435) was greater than 100 µM.

Compound `Cc1ccc(NCC2CC/C(=C\c3ccc(Cl)cc3)C2=O)cc1` (centres undefined) has a TGI (CAKI-1 renal) of 21.7 µM, a TGI (SW-620 colon) of 16.5 µM and a TGI (M14 melanoma) of 28.9 µM. The TGI (SNB-75 CNS) was greater than 100 µM, the TGI (OVCAR-8 ovarian) was 36.1 µM and the TGI (EKVX NSCLC) was greater than 100 µM. The TGI (A498 renal) was greater than 73.3 µM, the TGI (SK-OV-3 ovarian) was greater than 100 µM and the TGI (DU-145 prostate) was greater than 80.6 µM. It also gave a TGI (SR leukemia) greater than 24 µM, a TGI (SF-539 CNS) greater than 60.7 µM and a TGI (HCT-116 colon) of 26 µM. For the same compound, the TGI (786-0 renal) was 11.3 µM, the TGI (A549 NSCLC) was greater than 100 µM and the TGI (MDA-MB-231 breast) was 28.4 µM. The TGI (MOLT-4 leukemia) was greater than 32.4 µM, the TGI (ACHN renal) was greater than 71.5 µM and the TGI (LOX IMVI melanoma) was 19 µM. For the same compound, the TGI (OVCAR-4 ovarian) was greater than 80.7 µM, the TGI (RPMI-8226 leukemia) was 6.96 µM and the TGI (UO-31 renal) was 60 µM. The TGI (RXF 393 renal) was 31 µM, the TGI (OVCAR-5 ovarian) was greater than 54.5 µM and the TGI (HOP-62 NSCLC) was greater than 82.6 µM. For the same compound, the TGI (PC-3 prostate) was 37.5 µM, the TGI (KM12 colon) was 19 µM and the TGI (HCT-15 colon) was 9.41 µM. The TGI (NCI-H522 lung) was 15.8 µM, the TGI (U251 CNS) was 34 µM and the TGI (NCI-H23 lung) was 45.7 µM. The TGI (IGROV1 ovarian) was 38 µM, the TGI (UACC-62 melanoma) was 58.6 µM and the TGI (CCRF-CEM leukemia) was 19.3 µM. It also gave a TGI (SF-268 CNS) of 56.4 µM, a TGI (OVCAR-3 ovarian) of 29.1 µM and a TGI (HOP-92 NSCLC) of 30.6 µM. The TGI (SK-MEL-28 melanoma) was 36.7 µM, the TGI (K-562 leukemia) was greater than 19.8 µM and the TGI (MALME-3M melanoma) was 38 µM. For the same compound, the TGI (HT29 colon) was 49.1 µM, the TGI (T-47D breast) was 46.5 µM and the TGI (NCI/ADR-RES ovarian) was greater than 80.1 µM. For the same compound, the TGI (HL-60(TB) leukemia) was 13.7 µM, the TGI (TK-10 renal) was 40.6 µM and the TGI (NCI-H226 lung) was greater than 100 µM. For the same compound, the TGI (UACC-257 melanoma) was 39.2 µM, the TGI (COLO 205 colon) was 34.2 µM and the TGI (MDA-N) was 26.4 µM. It also gave a TGI (SNB-19 CNS) greater than 55.7 µM, a TGI (SK-MEL-5 melanoma) of 20.4 µM and a TGI (HS 578T breast) greater than 100 µM. It also gave a TGI (SF-295 CNS) greater than 100 µM, a TGI (HCC-2998 colon) greater than 69.8 µM and a TGI (SN12C renal) of 33.3 µM. It also gave a TGI (NCI-H460 lung) greater than 62.4 µM, a TGI (BT-549 breast) of 36.5 µM and a TGI (MCF7 breast) of 26.7 µM. For the same compound, the TGI (MDA-MB-435) was 35.9 µM.

Reference: PubChem BioAssay (NCI)
